ChEMBL document CHEMBL4507291 (2021)

Experiments:
[1] = biological target: Mitogen-activated protein kinase kinase kinase 6 (Homo sapiens) (UniProt O95382)
[2] = biological target: Calcium/calmodulin-dependent protein kinase kinase 1 (Homo sapiens) (UniProt Q8N5S9)
[3] = biological target: Peripheral plasma membrane protein CASK (Homo sapiens) (UniProt O14936)
[4] = biological target: Epithelial discoidin domain-containing receptor 1 (Homo sapiens) (UniProt Q08345)
[5] = system: Epidermal growth factor receptor (Homo sapiens), P00533 [UNDEFINED MUTATION]
Epidermal growth factor receptor (Homo sapiens), P00533 [UNDEFINED MUTATION], sequence (P00533 whole entry, looked up, change not shown): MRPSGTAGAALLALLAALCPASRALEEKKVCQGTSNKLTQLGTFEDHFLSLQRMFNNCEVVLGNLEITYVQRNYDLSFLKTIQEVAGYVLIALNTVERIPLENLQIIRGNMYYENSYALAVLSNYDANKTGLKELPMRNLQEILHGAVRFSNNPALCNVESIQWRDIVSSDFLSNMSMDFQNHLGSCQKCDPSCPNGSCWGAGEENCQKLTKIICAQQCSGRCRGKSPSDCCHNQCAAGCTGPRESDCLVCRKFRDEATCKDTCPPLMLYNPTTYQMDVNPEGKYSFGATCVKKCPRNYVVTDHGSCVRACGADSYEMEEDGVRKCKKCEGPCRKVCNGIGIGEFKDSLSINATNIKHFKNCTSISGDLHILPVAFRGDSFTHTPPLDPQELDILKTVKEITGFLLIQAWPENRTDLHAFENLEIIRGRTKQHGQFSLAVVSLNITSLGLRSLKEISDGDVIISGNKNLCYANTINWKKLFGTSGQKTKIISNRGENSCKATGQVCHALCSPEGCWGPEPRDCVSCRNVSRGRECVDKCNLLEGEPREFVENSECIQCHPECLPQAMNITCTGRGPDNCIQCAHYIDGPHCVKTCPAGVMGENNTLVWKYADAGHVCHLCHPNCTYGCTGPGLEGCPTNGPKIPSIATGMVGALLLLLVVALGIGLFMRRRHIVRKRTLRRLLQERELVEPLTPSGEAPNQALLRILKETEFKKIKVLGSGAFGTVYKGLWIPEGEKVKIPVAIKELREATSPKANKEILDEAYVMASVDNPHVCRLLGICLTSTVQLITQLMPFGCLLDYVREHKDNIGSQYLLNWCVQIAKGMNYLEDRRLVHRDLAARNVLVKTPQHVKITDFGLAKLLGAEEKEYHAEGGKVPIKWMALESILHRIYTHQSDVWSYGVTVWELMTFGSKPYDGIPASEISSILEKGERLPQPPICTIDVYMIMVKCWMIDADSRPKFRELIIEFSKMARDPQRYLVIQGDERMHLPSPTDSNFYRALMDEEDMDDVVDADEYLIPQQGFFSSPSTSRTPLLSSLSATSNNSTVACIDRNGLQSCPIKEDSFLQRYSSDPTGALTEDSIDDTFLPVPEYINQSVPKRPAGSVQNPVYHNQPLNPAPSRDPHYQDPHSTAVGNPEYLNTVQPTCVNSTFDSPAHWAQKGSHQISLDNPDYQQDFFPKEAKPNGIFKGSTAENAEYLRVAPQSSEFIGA

[6] = biological target: Ephrin type-A receptor 7 (Homo sapiens) (UniProt Q15375)
Ephrin type-A receptor 7 (Homo sapiens), sequence (Q15375 28-998 limits assumed): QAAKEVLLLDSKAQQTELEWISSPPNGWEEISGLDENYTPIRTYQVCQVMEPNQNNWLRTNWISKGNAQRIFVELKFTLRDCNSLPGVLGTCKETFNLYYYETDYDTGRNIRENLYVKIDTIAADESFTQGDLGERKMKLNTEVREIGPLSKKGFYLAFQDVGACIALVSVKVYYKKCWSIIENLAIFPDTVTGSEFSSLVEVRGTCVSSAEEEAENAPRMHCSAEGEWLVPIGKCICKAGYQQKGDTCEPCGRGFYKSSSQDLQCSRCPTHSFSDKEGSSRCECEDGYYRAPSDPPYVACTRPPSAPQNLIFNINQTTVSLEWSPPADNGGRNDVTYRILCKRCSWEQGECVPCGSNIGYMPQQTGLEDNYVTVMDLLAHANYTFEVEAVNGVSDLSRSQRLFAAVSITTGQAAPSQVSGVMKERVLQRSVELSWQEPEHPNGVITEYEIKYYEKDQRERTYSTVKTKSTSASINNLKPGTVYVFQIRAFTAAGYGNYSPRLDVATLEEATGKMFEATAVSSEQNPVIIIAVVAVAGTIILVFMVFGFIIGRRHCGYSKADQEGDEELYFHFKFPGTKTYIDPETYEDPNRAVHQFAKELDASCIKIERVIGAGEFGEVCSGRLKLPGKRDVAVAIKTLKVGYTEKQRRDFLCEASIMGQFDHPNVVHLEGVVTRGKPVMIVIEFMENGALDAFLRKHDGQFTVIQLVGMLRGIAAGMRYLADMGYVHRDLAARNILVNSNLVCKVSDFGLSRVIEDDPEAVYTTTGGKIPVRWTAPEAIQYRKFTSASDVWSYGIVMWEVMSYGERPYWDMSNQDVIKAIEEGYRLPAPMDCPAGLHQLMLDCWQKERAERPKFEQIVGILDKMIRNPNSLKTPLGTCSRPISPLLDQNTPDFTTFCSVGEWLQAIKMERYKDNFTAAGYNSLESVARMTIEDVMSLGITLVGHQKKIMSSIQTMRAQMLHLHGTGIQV

[7] = system: eIF-2-alpha kinase GCN2 (Homo sapiens), Q9P2K8 [S808G]
[8] = biological target: Homeodomain-interacting protein kinase 1 (Homo sapiens) (UniProt Q86Z02)
[9] = biological target: Mast/stem cell growth factor receptor Kit (Homo sapiens) (UniProt P10721)
[10] = biological target: LIM domain kinase 2 (Homo sapiens) (UniProt P53671)
LIM domain kinase 2 (Homo sapiens), sequence (P53671 whole entry, looked up, the tested form may be a part): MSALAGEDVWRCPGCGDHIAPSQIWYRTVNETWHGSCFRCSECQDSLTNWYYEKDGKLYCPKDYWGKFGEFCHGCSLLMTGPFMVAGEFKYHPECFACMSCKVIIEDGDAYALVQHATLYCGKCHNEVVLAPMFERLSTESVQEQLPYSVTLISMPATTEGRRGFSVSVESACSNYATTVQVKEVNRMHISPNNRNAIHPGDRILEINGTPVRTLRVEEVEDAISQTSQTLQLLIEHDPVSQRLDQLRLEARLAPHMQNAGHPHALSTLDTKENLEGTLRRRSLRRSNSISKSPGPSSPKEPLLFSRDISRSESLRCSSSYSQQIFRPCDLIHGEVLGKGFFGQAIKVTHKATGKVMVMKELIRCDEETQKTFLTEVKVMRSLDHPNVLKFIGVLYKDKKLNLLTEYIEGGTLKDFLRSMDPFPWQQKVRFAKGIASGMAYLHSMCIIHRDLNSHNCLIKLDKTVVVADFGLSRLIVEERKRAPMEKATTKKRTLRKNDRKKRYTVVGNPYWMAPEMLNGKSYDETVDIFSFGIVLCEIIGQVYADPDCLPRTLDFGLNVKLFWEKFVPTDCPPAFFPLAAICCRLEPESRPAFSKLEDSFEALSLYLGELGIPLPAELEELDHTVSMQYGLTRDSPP

[11] = biological target: Leukocyte tyrosine kinase receptor (Homo sapiens) (UniProt P29376)
[12] = biological target: T1, Mitogen-activated protein kinase kinase kinase 3 (Homo sapiens) (UniProt Q99759)
T1 sequence (whole entry): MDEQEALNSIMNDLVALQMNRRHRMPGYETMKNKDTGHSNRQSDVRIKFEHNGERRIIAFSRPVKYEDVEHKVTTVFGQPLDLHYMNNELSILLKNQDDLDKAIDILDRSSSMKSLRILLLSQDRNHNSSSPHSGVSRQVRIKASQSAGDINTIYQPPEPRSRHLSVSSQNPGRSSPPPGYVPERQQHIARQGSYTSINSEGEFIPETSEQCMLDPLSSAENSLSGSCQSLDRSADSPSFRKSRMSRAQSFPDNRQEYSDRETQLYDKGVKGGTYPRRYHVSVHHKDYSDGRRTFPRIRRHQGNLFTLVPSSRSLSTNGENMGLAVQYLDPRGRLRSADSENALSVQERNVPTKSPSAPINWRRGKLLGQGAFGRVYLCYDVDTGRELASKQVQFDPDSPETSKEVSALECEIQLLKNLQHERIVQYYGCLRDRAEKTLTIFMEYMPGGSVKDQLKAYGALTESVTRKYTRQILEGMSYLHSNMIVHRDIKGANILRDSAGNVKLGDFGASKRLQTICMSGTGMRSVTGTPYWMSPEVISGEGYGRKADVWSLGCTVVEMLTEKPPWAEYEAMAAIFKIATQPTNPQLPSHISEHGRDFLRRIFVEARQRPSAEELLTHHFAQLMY

[13] = biological target: T2, MAP/microtubule affinity-regulating kinase 4 (Homo sapiens) (UniProt Q96L34)
T2 sequence (whole entry): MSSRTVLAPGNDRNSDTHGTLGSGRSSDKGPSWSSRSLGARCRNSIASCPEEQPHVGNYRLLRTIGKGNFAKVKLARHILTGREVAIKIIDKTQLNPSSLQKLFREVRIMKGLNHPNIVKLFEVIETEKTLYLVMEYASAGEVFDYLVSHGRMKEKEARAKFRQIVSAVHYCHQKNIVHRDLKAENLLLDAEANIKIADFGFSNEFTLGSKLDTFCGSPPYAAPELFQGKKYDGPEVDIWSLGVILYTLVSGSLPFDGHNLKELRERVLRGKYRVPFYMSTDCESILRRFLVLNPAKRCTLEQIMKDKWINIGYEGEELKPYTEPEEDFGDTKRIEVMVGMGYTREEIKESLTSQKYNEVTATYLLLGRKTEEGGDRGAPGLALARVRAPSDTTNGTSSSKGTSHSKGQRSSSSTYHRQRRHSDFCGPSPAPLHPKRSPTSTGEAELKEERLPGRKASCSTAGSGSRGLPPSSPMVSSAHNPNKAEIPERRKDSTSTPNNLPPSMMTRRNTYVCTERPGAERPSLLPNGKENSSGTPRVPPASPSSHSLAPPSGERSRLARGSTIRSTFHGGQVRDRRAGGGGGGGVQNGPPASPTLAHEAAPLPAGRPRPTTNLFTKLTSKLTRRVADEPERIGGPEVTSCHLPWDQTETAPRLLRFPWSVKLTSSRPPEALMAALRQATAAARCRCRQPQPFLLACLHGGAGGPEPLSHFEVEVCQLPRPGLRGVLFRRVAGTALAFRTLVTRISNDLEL

[14] = biological target: MAP kinase-interacting serine/threonine-protein kinase 2 (Homo sapiens) (UniProt Q9HBH9)
MAP kinase-interacting serine/threonine-protein kinase 2 (Homo sapiens), sequence (Q9HBH9 whole entry, looked up): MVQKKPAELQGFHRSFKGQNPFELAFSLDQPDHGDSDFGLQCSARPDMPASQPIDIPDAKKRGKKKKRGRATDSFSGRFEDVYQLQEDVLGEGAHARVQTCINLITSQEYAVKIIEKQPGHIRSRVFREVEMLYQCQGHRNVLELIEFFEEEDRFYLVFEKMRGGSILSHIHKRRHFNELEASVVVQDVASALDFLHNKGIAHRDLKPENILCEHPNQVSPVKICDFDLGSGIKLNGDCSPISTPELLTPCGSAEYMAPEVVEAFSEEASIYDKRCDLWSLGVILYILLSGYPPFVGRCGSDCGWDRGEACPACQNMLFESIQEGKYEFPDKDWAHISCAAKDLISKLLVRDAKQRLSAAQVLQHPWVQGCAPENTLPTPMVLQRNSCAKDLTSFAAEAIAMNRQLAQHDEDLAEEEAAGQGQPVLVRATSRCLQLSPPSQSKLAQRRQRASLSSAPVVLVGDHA

[15] = biological target: Platelet-derived growth factor receptor beta (Homo sapiens) (UniProt P09619)
[16] = biological target: Phosphatidylinositol 4-phosphate 3-kinase C2 domain-containing subunit beta (Homo sapiens) (UniProt O00750)
[17] = biological target: Rho-associated protein kinase 1 (Homo sapiens) (UniProt Q13464)
[18] = biological target: Ribosomal protein S6 kinase alpha-4 (Homo sapiens) (UniProt O75676)
Ribosomal protein S6 kinase alpha-4 (Homo sapiens), sequence (O75676 whole entry, looked up): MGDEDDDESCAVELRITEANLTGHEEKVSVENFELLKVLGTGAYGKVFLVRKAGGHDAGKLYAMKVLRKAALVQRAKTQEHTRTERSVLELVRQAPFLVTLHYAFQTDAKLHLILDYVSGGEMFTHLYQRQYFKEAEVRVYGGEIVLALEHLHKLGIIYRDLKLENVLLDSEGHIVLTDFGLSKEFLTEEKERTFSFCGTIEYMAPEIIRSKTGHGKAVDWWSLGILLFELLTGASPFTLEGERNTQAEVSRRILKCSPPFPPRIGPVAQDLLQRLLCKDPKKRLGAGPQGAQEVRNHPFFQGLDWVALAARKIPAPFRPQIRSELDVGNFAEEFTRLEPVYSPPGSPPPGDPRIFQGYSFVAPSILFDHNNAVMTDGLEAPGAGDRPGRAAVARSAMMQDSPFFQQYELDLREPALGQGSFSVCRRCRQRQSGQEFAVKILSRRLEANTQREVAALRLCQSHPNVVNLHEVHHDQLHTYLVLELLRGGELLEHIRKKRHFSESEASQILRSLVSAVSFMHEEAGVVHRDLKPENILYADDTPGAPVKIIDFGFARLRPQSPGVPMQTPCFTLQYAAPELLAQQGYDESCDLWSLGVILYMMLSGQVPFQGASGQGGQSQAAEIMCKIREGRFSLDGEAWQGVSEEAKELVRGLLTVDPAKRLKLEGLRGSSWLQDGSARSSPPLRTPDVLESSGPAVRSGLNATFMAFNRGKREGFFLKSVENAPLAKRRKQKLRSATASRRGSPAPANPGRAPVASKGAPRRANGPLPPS

[19] = biological target: Ribosomal protein S6 kinase alpha-1 (Homo sapiens) (UniProt Q15418)
[20] = biological target: Beta-2 adrenergic receptor (Homo sapiens) (UniProt P07550); details: Compound concentration 10.0 uM
[21] = Compound concentration 1000.0 nM
[22] = Compound concentration 100.0 nM

Peripheral plasma membrane protein CASK (Homo sapiens), sequence (O14936 whole entry, the tested form may be a part): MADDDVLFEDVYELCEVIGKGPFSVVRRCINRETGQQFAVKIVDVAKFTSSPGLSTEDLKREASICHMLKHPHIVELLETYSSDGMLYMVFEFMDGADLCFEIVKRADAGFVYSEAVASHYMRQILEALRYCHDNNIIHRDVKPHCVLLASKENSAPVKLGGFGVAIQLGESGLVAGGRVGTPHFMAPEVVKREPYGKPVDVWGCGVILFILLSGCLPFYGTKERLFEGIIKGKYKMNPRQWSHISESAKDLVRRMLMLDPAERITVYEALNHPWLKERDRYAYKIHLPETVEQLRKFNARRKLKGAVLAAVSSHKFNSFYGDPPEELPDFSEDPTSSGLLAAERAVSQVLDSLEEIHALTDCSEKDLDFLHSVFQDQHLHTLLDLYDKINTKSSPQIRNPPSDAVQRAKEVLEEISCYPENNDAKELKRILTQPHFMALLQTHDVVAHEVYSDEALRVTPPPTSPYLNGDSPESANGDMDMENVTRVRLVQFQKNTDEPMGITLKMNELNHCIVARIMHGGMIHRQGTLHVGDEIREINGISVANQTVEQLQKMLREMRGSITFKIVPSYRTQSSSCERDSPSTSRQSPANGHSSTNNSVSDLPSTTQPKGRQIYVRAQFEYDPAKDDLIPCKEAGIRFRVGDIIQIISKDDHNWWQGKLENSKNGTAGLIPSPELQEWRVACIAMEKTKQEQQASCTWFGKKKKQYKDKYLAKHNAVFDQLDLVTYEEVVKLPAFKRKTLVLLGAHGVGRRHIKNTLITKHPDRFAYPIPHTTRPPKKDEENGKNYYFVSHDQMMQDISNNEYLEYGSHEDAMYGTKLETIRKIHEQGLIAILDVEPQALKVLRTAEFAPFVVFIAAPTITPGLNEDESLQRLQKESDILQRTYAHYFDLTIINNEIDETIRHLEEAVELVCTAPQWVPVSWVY

C[C@@H]1CN(c2cc(-c3nn(C)c4ccc(OC5(C)CC5)cc34)ncn2)C[C@H](C)O1 [MLi-2-NC]
inactive: residual activity [1, 21] 76% | residual activity [2, 21] 80% | residual activity [3, 21] 93% | residual activity [4, 21] 68% | residual activity [5, 21] 92% | residual activity [6, 21] 99% | residual activity [7, 21] 100% | residual activity [8, 21] 85% | residual activity [9, 21] 100% | residual activity [10, 21] 92% | residual activity [11, 21] 100% | residual activity [12, 21] 90% | residual activity [13, 21] 100% | residual activity [14, 21] 67% | residual activity [15, 21] 100% | residual activity [16, 21] 70% | residual activity [17, 21] 100% | residual activity [18, 21] 81% | residual activity [19, 21] 100% | inhibition [20] 13.8%

C[C@@H]1CN(c2cc(-c3n[nH]c4ccc(OC5(C)CC5)cc34)ncn2)C[C@H](C)O1 [MLi-2]
inactive: residual activity [1, 22] 59% | residual activity [2, 22] 100% | residual activity [3, 22] 59% | residual activity [4, 22] 91% | residual activity [5, 22] 69% | residual activity [6, 22] 82% | residual activity [7, 22] 81% | residual activity [8, 22] 69% | residual activity [9, 22] 82% | residual activity [10, 22] 91% | residual activity [11, 22] 84% | residual activity [12, 22] 64% | residual activity [13, 22] 100% | residual activity [14, 22] 74% | residual activity [15, 22] 73% | residual activity [16, 22] 66% | residual activity [17, 22] 80% | residual activity [18, 22] 75% | residual activity [19, 22] 93% | inhibition [20] 26.4%
